Source: patent EP4707277A1, “NOVEL HETEROCYCLIC AMINE DERIVATIVES AND PHARMACEUTICAL COMPOSITION COMPRISING SAME” (Daewoong Pharmaceutical Co., Ltd., priority 2023, dated 2024)
Like-named read-outs stand apart in the source and are kept apart here.

What was measured:
ITK = molecular target: T1, ITK (Homo sapiens, UniProt Q08881); assay: Inhibitory activity against ITK, ADP-Glo Kinase system (Promega); assay type: biochemical
T1 construct: purchased Signalchem I13-11G-10
T1 sequence (Q08881 1-620): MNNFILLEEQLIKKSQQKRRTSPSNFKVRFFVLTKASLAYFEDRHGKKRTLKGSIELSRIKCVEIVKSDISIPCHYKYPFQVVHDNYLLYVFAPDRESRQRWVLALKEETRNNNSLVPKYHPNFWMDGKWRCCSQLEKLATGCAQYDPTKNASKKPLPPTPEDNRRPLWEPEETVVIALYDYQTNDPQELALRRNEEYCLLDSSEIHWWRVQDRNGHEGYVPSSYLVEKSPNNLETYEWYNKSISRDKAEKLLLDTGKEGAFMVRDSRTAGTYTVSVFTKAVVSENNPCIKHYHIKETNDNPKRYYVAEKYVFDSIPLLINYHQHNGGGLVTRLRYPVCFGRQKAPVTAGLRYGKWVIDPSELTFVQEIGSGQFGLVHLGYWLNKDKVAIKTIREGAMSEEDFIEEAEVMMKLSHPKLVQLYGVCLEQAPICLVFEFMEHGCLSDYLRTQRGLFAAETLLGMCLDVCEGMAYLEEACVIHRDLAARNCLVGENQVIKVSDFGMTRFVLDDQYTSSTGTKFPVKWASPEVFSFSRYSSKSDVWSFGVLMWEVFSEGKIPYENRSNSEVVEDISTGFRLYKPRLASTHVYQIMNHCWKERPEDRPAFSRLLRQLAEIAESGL
Method in brief: (§1)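 ADP-Glo luminescent ADP detection with recombinant human ITK (4 ng/reaction) or BTK (10 ng/reaction) and poly(Glu4,Tyr1) substrate at 0.2 µg/µl. Buffer: Tris pH 7.5, MgCl2, MnCl2, BSA, DTT. ATP 1 mM or Km (BTK 10 µM, ITK 25 µM); 1% DMSO; 1 h at 30°C; IC50 from curve fit.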

BTK = molecular target: T2, BTK (Homo sapiens, UniProt Q06187); assay: Inhibitory activity against BTK, ADP-Glo Kinase system (Promega); assay type: biochemical
T2 construct: purchased Signalchem B10-10H
T2 sequence (Q06187 whole entry): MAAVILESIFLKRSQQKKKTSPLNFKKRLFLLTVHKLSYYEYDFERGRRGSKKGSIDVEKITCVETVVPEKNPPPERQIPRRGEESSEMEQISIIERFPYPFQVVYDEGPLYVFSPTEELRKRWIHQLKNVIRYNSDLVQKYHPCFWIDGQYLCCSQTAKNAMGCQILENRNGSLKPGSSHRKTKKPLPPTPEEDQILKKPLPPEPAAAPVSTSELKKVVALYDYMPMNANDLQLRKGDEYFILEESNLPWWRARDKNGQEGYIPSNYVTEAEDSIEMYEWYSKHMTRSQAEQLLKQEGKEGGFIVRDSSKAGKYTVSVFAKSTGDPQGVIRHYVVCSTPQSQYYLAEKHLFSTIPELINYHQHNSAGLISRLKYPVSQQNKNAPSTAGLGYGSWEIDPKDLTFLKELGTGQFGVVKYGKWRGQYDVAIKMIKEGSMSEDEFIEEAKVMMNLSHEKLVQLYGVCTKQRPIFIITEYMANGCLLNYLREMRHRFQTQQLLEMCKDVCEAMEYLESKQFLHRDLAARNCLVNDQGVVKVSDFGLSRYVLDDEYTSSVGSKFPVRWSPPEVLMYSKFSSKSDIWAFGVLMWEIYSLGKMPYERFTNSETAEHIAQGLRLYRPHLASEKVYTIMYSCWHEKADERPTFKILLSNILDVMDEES
Method in brief: as §1

[1] = Km ATP (ITK: 25uM), read-out: ITK IC50(nM) Km ATP
[2] = Km ATP (BTK: 10 uM), read-out: BTK IC50(nM) Km ATP
[3] = 1mM ATP, read-out: ITK IC50(nM) 1mM ATP
[4] = 1mM ATP, read-out: BTK IC50(nM) 1mM ATP

SMILES | IC50 (ITK; [1]) | IC50 (BTK; [2]) | IC50 (ITK; [3]) | IC50 (BTK; [4])
C=CC(=O)Nc1c(F)ccc(-c2nc(Nc3ncc(C)s3)cc3c2ccn3C)c1F [Example 57, N-(2,6-difluoro-3-(1-methyl-6-((5-methylthiazol-2-yl)amino)-1H-pyrrolo[3,2-c]pyridin-4-yl)phenyl)acrylamide] | ≤ 20 nM | ≤ 20 nM | – | –
C=CC(=O)N1C[C@H](F)[C@H](Oc2nc(Nc3ncc(C)s3)cc3c2ccn3C)C1 [Example 131, 1-((3S,4R)-3-fluoro-4-((1-methyl-6-((5-methylthiazol-2-yl)amino)-1H-pyrrolo[3,2-c]pyridin-4-yl)oxy)pyrrolidin-1-yl)prop-2-en-1-one] | – | – | ≤ 20 nM | ≤ 20 nM
C=CC(=O)N1C[C@H](F)[C@H](Oc2nc(Nc3ncc(C)s3)cc3c2ccn3CC(F)(F)F)C1 [Example 211, 1-((3S,4R)-3-fluoro-4-((6-((5-methylthiazol-2-yl)amino)-1-(2,2,2-trifluoroethyl)-1H-pyrrolo[3,2-c]pyridin-4-yl)oxy)pyrrolidin-1-yl)prop-2-en-1-one] | – | – | ≤ 20 nM | ≤ 20 nM
C=CC(=O)Nc1ccc(F)c(-c2nc(Nc3ncc(C)s3)cc3c2ccn3[C@@H](C)CC)c1 [Example 68, (S)-N-(3-(1-(sec-butyl)-6-((5-methylthiazol-2-yl)amino)-1H-pyrrolo[3,2-c]pyridin-4-yl)-4-fluorophenyl)acrylamide] | – | – | 20 to 100 nM | ≤ 20 nM
C=CC(=O)N1C2C=C(c3nc(Nc4ncc(C)s4)cc4c3ccn4CC3CC3)CC1CC2 (stereo not drawn) [Example 39, 1-(3-(1-(cyclopropylmethyl)-6-((5-methylthiazol-2-yl)amino)-1H-pyrrolo[3,2-c]pyridin-4-yl)-8-azabicyclo[3.2.1]oct-2-en-8-yl)prop-2-en-1-one] | – | – | ≤ 20 nM | ≤ 20 nM
C=CC(=O)Nc1cc(-c2nc(Nc3ncc(C)s3)cc3c2ccn3CC2CC2)c(F)cc1F [Example 66, N-(5-(1-(cyclopropylmethyl)-6-((5-methylthiazol-2-yl)amino)-1H-pyrrolo[3,2-c]pyridin-4-yl)-2,4-difluorophenyl)acrylamide] | ≤ 20 nM | ≤ 20 nM | 20 to 100 nM | ≤ 20 nM
Cc1cnc(Nc2cc3c(ccn3CC(C)C)c(O[C@@H]3CN(C(=O)CCl)C[C@@H]3F)n2)s1 [Example 229, 2-chloro-1-((3S,4R)-3-fluoro-4-((1-isobutyl-6-((5-methylthiazol-2-yl)amino)-1H-pyrrolo[3,2-c]pyridin-4-yl)oxy)pyrrolidin-1-yl)ethan-1-one] | – | – | ≤ 20 nM | 20 to 100 nM
C=CC(=O)N1CC[C@H](Oc2nc(Nc3cc[nH]n3)cc3c2ccn3C(C)C)C1 [Example 192, (S)-1-(3-((6-((1H-pyrazol-3-yl)amino)-1-isopropyl-1H-pyrrolo[3,2-c]pyridin-4-yl)oxy)pyrrolidin-1-yl)prop-2-en-1-one] | – | – | 100 to 500 nM | ≤ 20 nM
C=CC(=O)N1C[C@H](F)[C@H](Oc2nc(Nc3ncc(C)s3)cc3c2ccn3[C@@H](C)CC)C1 [Example 112, 1-((3R,4S)-3-((1-((S)-sec-butyl)-6-((5-methylthiazol-2-yl)amino)-1H-pyrrolo[3,2-c]pyridin-4-yl)oxy)-4-fluoropyrrolidin-1-yl)prop-2-en-1-one] | – | – | ≤ 20 nM | ≤ 20 nM
C=CC(=O)N1CC=C(c2nc(Nc3ncc(C)s3)cc3c2ccn3C2CC2(F)F)CC1 (stereo not drawn) [Example 20, 1-(4-(1-(2,2-difluorocyclopropyl)-6-((5-methylthiazol-2-yl)amino)-1H-pyrrolo[3,2-c]pyridin-4-yl)-3,6-dihydropyridin-1(2H)-yl)prop-2-en-1-one] | ≤ 20 nM | ≤ 20 nM | – | –
C=CC(=O)N1CC[C@H](Oc2nc(Nc3ncc(CC)s3)cc3c2ccn3CC(C)C)C1 [Example 122, (S)-1-(3-((6-((5-ethylthiazol-2-yl)amino)-1-isobutyl-1H-pyrrolo[3,2-c]pyridin-4-yl)oxy)pyrrolidin-1-yl)prop-2-en-1-one] | ≤ 20 nM | ≤ 20 nM | – | –
C=CC(=O)Nc1ccc(F)c(-c2nc(Nc3ncc(C)s3)cc3c2ccn3CC(F)(F)F)c1 [Example 78, N-(4-fluoro-3-(6-((5-methylthiazol-2-yl)amino)-1-(2,2,2-trifluoroethyl)-1H-pyrrolo[3,2-c]pyridin-4-yl)phenyl)acrylamide] | – | – | 20 to 100 nM | ≤ 20 nM
C=CC(=O)N1CC=C(c2nc(Nc3cc(C(F)(F)F)ncn3)cc3c2ccn3C(C)C)CC1 [Example 45, 1-(4-(1-isopropyl-6-((6-(trifluoromethyl)pyrimidin-4-yl)amino)-1H-pyrrolo[3,2-c]pyridin-4-yl)-3,6-dihydropyridin-1(2H)-yl)prop-2-en-1-one] | – | – | 100 to 500 nM | 20 to 100 nM
C=CC(=O)N1CC=C(c2nc(Nc3ncc(C)s3)cc3c2ccn3[C@H](C)CC)CC1 [Example 14, (R)-1-(4-(1-(sec-butyl)-6-((5-methylthiazol-2-yl)amino)-1H-pyrrolo[3,2-c]pyridin-4-yl)-3,6-dihydropyridin-1(2H)-yl)prop-2-en-1-one] | ≤ 20 nM | ≤ 20 nM | – | –
C=CC(=O)N1CCC[C@H](Oc2nc(Nc3ncc(C)s3)cc3c2ccn3CC)C1 [Example 153, (S)-1-(3-((1-ethyl-6-((5-methylthiazol-2-yl)amino)-1H-pyrrolo[3,2-c]pyridin-4-yl)oxy)piperidin-1-yl)prop-2-en-1-one] | – | – | 20 to 100 nM | ≤ 20 nM
C=CC(=O)N1CCC12CC(Oc1nc(Nc3ncc(C)s3)cc3c1ccn3C)C2 (stereo not drawn) [Example 136, 1-(6-((1-methyl-6-((5-methylthiazol-2-yl)amino)-1H-pyrrolo[3,2-c]pyridin-4-yl)oxy)-1-azaspiro[3.3]heptan-1-yl)prop-2-en-1-one] | – | – | ≤ 20 nM | ≤ 20 nM
C=CC(=O)N1CC[C@H](Oc2nc(Nc3ncc(C)s3)cc3c2ccn3CC(C)C)C1 [Example 81, (S)-1-(3-((1-isobutyl-6-((5-methylthiazol-2-yl)amino)-1H-pyrrolo[3,2-c]pyridin-4-yl)oxy)pyrrolidin-1-yl)prop-2-en-1-one] | – | – | ≤ 20 nM | ≤ 20 nM
C=CC(=O)N1CC[C@@H]1COc1nc(Nc2ncc(C)s2)cc2c1ccn2C(C)C [Example 90, (R)-1-(2-(((1-isopropyl-6-((5-methylthiazol-2-yl)amino)-1H-pyrrolo[3,2-c]pyridin-4-yl)oxy)methyl)azetidin-1-yl)prop-2-en-1-one] | – | – | ≤ 20 nM | ≤ 20 nM
C=CC(=O)N1CC=C(c2nc(Nc3ccncn3)cc3c2ccn3C(C)C)CC1 [Example 43, 1-(4-(1-isopropyl-6-(pyrimidin-4-ylamino)-1H-pyrrolo[3,2-c]pyridin-4-yl)-3,6-dihydropyridin-1(2H)-yl)prop-2-en-1-one] | – | – | 20 to 100 nM | ≤ 20 nM
C=CC(=O)N1CC=C(c2nc(Nc3ncc(C)s3)cc3c2ccn3CC(F)F)CC1 [Example 12, 1-(4-(1-(2,2-difluoroethyl)-6-((5-methylthiazol-2-yl)amino)-1H-pyrrolo[3,2-c]pyridin-4-yl)-3,6-dihydropyridin-1(2H)-yl)prop-2-en-1-one] | ≤ 20 nM | ≤ 20 nM | ≤ 20 nM | ≤ 20 nM
C=CC(=O)Nc1cc(-c2nc(Nc3ncc(C)s3)cc3c2ccn3CC(F)F)ccc1C [Example 74, N-(5-(1-(2,2-difluoroethyl)-6-((5-methylthiazol-2-yl)amino)-1H-pyrrolo[3,2-c]pyridin-4-yl)-2-methylphenyl)acrylamide] | ≤ 20 nM | ≤ 20 nM | – | –
C=CC(=O)N1CCC[C@@H]1COc1nc(Nc2ncc(C)s2)cc2c1ccn2C(C)C [Example 89, (R)-1-(2-(((1-isopropyl-6-((5-methylthiazol-2-yl)amino)-1H-pyrrolo[3,2-c]pyridin-4-yl)oxy)methyl)pyrrolidin-1-yl)prop-2-en-1-one] | – | – | 20 to 100 nM | ≤ 20 nM
C=CC(=O)Nc1cccc(-c2nc(Nc3ncc(C)s3)cc3c2ccn3C)c1F [Example 51, N-(2-fluoro-3-(1-methyl-6-((5-methylthiazol-2-yl)amino)-1H-pyrrolo[3,2-c]pyridin-4-yl)phenyl)acrylamide] | ≤ 20 nM | ≤ 20 nM | – | –
C=CC(=O)N1C[C@H](F)[C@H](Oc2nc(Nc3cc(C)[nH]n3)cc3c2ccn3CC(C)C)C1 [Example 196, 1-((3S,4R)-3-fluoro-4-((1-isobutyl-6-((5-methyl-1H-pyrazol-3-yl)amino)-1H-pyrrolo[3,2-c]pyridin-4-yl)oxy)pyrrolidin-1-yl)prop-2-en-1-one] | – | – | 20 to 100 nM | 20 to 100 nM
C=CC(=O)N1C[C@H](F)[C@H](Oc2nc(Nc3ncc(C)s3)cc3c2ccn3CC(C)C)C1 [Example 105, 1-((3S,4R)-3-fluoro-4-((1-isobutyl-6-((5-methylthiazol-2-yl)amino)-1H-pyrrolo[3,2-c]pyridin-4-yl)oxy)pyrrolidin-1-yl)prop-2-en-1-one] | – | – | ≤ 20 nM | ≤ 20 nM
